Reference: US11472842B2 (Protagonist Therapeutics, Inc., priority 2015, dated 2022)
Starred links: 1 amine or outer side, 2 acyl side, 3 side chain; linkers in the order of their positions; H or OH if unused. Positions of bridges follow the written chain, without caps; N, C: chain ends. Residues, ends and D or L forms follow the SMILES beside them. Groups on a side chain read outwards from the residue. *: point of attachment. γGlu = O=C(O)[C@H](CCC(=O)[*:2])N[*:1]; Palmitoyl = CCCCCCCCCCCCCCCC(=O)*; Isovaleryl = CC(C)CC(=O)*

biological target: T1, human ferroportin (Homo sapiens, UniProt Q9NP59); test: Ferroportin internalization / degradation, HEK-GFP cell based assay (HEK293 cells stably expressing ferroportin-GFP, decrease in GFP fluorescence); conditions: Table 3 monomer analogues; ferroportin-GFP HEK293 cells, 18-24 h incubation; read-out: HEK-GFP cell based assay (potency EC50)
T1 construct: expressed in transfected cells
T1 sequence (Q9NP59 1-571): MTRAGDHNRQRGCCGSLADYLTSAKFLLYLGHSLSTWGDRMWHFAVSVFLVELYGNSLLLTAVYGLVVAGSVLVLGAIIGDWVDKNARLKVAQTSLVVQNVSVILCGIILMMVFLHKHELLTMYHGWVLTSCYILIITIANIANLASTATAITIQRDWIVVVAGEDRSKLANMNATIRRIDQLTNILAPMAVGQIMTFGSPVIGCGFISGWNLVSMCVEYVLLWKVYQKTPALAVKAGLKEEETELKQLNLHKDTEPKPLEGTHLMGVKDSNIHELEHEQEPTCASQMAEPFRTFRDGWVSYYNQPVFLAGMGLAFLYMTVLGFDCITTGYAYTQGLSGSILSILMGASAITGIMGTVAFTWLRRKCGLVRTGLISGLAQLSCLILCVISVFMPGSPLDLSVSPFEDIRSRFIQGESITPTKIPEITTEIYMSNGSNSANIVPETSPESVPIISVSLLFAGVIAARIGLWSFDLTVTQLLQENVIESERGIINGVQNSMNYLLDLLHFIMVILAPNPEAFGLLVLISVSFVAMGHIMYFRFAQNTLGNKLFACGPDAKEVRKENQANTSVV
Description: Peptide analogues were tested in vitro for induction of internalization of the human ferroportin protein. Following internalization, the […] are degraded. The assay measures a decrease in fluorescence of the receptor.
The cDNA encoding the human ferroportin (SLC40A1) was cloned from a cDNA clone from Origene (NM_014585). The DNA encoding the ferroportin was amplified by PCR using primers also encoding terminal restriction sites for subcloning, but without the termination codon. The ferroportin receptor was subcloned into a mammalian GFP expression vector containing a neomycin (G418) resistance marker in such that the reading frame of the ferroportin was fused in frame with the GFP protein. The fidelity of the DNA encoding the protein was confirmed by DNA sequencing. HEK293 cells were used for transfection of the ferroportin-GFP receptor expression plasmid. The cells were grown according to standard protocol in growth medium and transfected with the plasmids using Lipofectamine (manufacturer's protocol, Invitrogen). […] The cells were propagated and frozen in aliquots.
Compound was added to desired final concentration for at least 18 hours in the incubator. […] Compound was added to desired final concentration for at least 18 hours but no more than 24 hours in the incubator.
The EC50 of these reference compounds for ferroportin degradation was determined according to the activity assay described above. These peptides served as control standards.
These values were determined as described herein.

SMILES | DC50 [nM]
CCCCCCCCCCCCCCCC(=O)NCCCC[C@@H]1NC(=O)[C@H](Cc2ccccc2)NC(=O)[C@H](CCCCN)NC(=O)[C@H]([C@@H](C)CC)NC(=O)[C@@H](NC(=O)[C@@H]2CCCN2C(=O)[C@H](Cc2ccccc2)NC(=O)[C@H](Cc2c[nH]cn2)NC(=O)[C@@H](NC(=O)[C@H](CC(=O)O)NC(=O)CC(C)C)[C@@H](C)O)CSSC[C@@H](C(=O)N[C@@H](CCCCN)C(N)=O)NC(=O)CNC(=O)[C@H](CCCCN)NC(=O)[C@H](CO)NC(=O)[C@H](CCCNC(=N)N)NC(=O)[C@@H]2CCCN2C1=O [Compound 20] | 19
CCCCCCCCCCCCCCCC(=O)N[C@@H](CCC(=O)NCCCC[C@@H]1NC(=O)[C@H](Cc2ccccc2)NC(=O)[C@H](CCCCN)NC(=O)[C@H]([C@@H](C)CC)NC(=O)[C@@H](NC(=O)[C@@H]2CCCN2C(=O)[C@H](Cc2ccccc2)NC(=O)[C@H](Cc2c[nH]cn2)NC(=O)[C@@H](NC(=O)[C@H](CC(=O)O)NC(=O)CC(C)C)[C@@H](C)O)C(C)(C)SSC(C)(C)[C@@H](C(=O)N[C@@H](CCCCN)C(N)=O)NC(=O)CNC(=O)[C@H](CCCCN)NC(=O)[C@H](CO)NC(=O)[C@H](CCCNC(=N)N)NC(=O)[C@@H]2CCCN2C1=O)C(=O)O [Compound 3, Isovaleric acid-DTHFP-[Pen]-IKF-[Lys(IsoGlu-Palm)]-PRSKG-[Pen]-K-NH2] | 418
CCCCCCCCCCCCCCCC(=O)N[C@@H](CCC(=O)NCCCC[C@@H]1NC(=O)[C@H](Cc2ccccc2)NC(=O)[C@H](CCCCN)NC(=O)[C@H](CCCCN)NC(=O)[C@@H](NC(=O)[C@@H]2CCCN2C(=O)[C@H](Cc2ccccc2)NC(=O)[C@H](Cc2c[nH]cn2)NC(=O)[C@@H](NC(=O)[C@H](CC(=O)O)NC(=O)CC(C)C)[C@@H](C)O)CSSC[C@@H](C(=O)N[C@@H](CCCCN)C(N)=O)NC(=O)CNC(=O)[C@H](CCCCN)NC(=O)[C@H](CO)NC(=O)[C@H](CCCNC(=N)N)NC(=O)[C@@H]2CCCN2C1=O)C(=O)O [Compound 11] (Isovaleryl-DTHFPCKKFK([γGlu-Palmitoyl])PRSKGCK-NH2; disulfide 6-16) | 22
CCCCCCCCCCCCCCCC(=O)N[C@@H](CCC(=O)NCCCC[C@@H]1NC(=O)[C@H](Cc2ccccc2)NC(=O)[C@H](CCCCN)NC(=O)[C@H]([C@@H](C)CC)NC(=O)[C@@H](NC(=O)[C@@H]2CCCN2C(=O)[C@H](Cc2ccccc2)NC(=O)[C@H](Cc2c[nH]cn2)NC(=O)[C@@H](NC(=O)[C@H](CC(=O)O)NC(=O)CC(C)C)[C@@H](C)O)CSSC(C)(C)[C@@H](C(=O)N[C@@H](CCCCN)C(N)=O)NC(=O)CNC(=O)[C@H](CCCCN)NC(=O)[C@H](CO)NC(=O)[C@H](CCCNC(=N)N)NC(=O)[C@@H]2CCCN2C1=O)C(=O)O [Compound 5] | 13
CCCCCCCCCCCCCCCC(=O)N[C@@H](CCC(=O)NCCCC[C@@H]1NC(=O)[C@H](Cc2ccccc2)NC(=O)[C@H](CCCCN)NC(=O)[C@H]([C@@H](C)CC)NC(=O)[C@@H](NC(=O)[C@@H]2CCCN2C(=O)[C@@H](NC(=O)[C@H](Cc2c[nH]cn2)NC(=O)[C@@H](NC(=O)[C@H](CC(=O)O)NC(=O)CC(C)C)[C@@H](C)O)C(c2ccccc2)c2ccccc2)CSSC[C@@H](C(=O)N[C@@H](CCCCN)C(N)=O)NC(=O)CN(C)C(=O)[C@H](CCCCN)NC(=O)[C@H](CO)NC(=O)[C@H](CCCNC(=N)N)NC(=O)[C@@H]2CCCN2C1=O)C(=O)O [Compound 8, Isovaleric acid-DTH-[Dpa]-PCIKF-[Lys(IsoGlu-Palm)]-PRSK-[Sar]-CK-NH2] | 15

These reach a lower DC50. Values come first.

DC50 [nM] | SMILES
12 | CCCCCCCCCCCCCCCC(=O)N[C@@H](CCC(=O)NCCCC[C@@H]1NC(=O)[C@H](Cc2ccccc2)NC(=O)[C@H](CCCCN)NC(=O)[C@H]([C@@H](C)CC)NC(=O)[C@@H](NC(=O)[C@@H]2CCCN2C(=O)[C@@H](NC(=O)[C@H](Cc2c[nH]cn2)NC(=O)[C@@H](NC(=O)[C@H](CC(=O)O)NC(=O)CC(C)C)[C@@H](C)O)C(c2ccccc2)c2ccccc2)CSSC[C@@H](C(=O)N[C@@H](CCCCN)C(N)=O)NC(=O)CNC(=O)[C@H](CCCCN)NC(=O)[C@H](CO)NC(=O)[C@H](CCCNC(=N)N)NC(=O)[C@@H]2CCCN2C1=O)C(=O)O [Compound 7, Isovaleric acid-DTH-[Dpa]-PCIKF-[Lys(IsoGlu-Palm)]-PRSKGCK-NH2]
11 | CCCCCCCCCCCCCCCC(=O)N[C@@H](CCC(=O)NCCCC[C@@H]1NC(=O)[C@H](Cc2ccccc2)NC(=O)[C@H](CCCCN)NC(=O)[C@H]([C@@H](C)CC)NC(=O)[C@@H](NC(=O)[C@@H]2CCCN2C(=O)[C@H](Cc2ccccc2)NC(=O)[C@H](Cc2c[nH]cn2)NC(=O)[C@@H](NC(=O)[C@H](CC(=O)O)NC(=O)CC(C)C)[C@@H](C)O)CSSC[C@@H](C(=O)N[C@@H](CCCCN)C(N)=O)NC(=O)CN(C)C(=O)[C@H](CCCCN)NC(=O)[C@H](CO)NC(=O)[C@H](CCCNC(=N)N)NC(=O)[C@@H]2CCCN2C1=O)C(=O)O [Compound 6]
6 | CCCCCCCCCCCCCCCC(=O)NCCCCCC(=O)NCCCC[C@@H]1NC(=O)[C@H]([C@@H](C)CC)NC(=O)[C@@H](NC(=O)[C@@H]2CCCN2C(=O)[C@H](Cc2ccccc2)NC(=O)[C@H](Cc2c[nH]cn2)NC(=O)[C@@H](NC(=O)[C@H](CC(=O)O)NC(=O)CC(C)C)[C@@H](C)O)CSSC[C@@H](C(=O)N[C@@H](CCCCN)C(N)=O)NC(=O)CN(C)C(=O)[C@H](CCCCN)NC(=O)[C@H](CO)NC(=O)[C@H](CCCNC(=N)N)NC(=O)[C@@H]2CCCN2C(=O)[C@H](CCC(=O)O)NC(=O)[C@H](Cc2ccccc2)NC1=O [Compound 23, Isovaleric acid-DTHFPCI-[Lys(Ahx-Palm)]-FEPRSK-[Sar]-CK-NH2]
